Data set [1] is described as follows: Pharmacokinetic study, oral dosing, plasma concentration by LC-MS/MS. The data set is classed as in vivo. Particulars: female swiss mice, fasted overnight, oral 3 mg/kg in PEG 400, plasma. The procedure: For pharmacokinetic study female swiss mice were used. The swiss mice weighing 25-30 g, fasted overnight, were orally dosed at 3 mg/kg body weight of compound in PEG 400. Blood samples (40 μl) were collected from each mouse by retro-orbital bleeding at 0, 0.16, 0.5, 1, 2, 4, 6 and 8 h after dosing into the tubes containing heparin as an anticoagulant. The samples were stored in ice and within 1 h after collection samples were centrifuged at 10000 RPM at 4° C. Plasma was collected and stored at −80° C. until analyis. The concentration of compounds in plasma were determined by liquid chromatography-tandem mass spectrometry (LC-MS/MS).
The protein precipitation method was used to extract the compounds. Acetonitrile was added to plasma, vortexed and centrifuged at 10000 RPM at 4° C. The supenatent was collected and injected onto the column. A CTC HTC PAL auto sampler (LEAP Technologies) linked to a Shimadzu SCL-10A VP HTC controller with LC-10AD pumps (Shimadzu), coupled with a Sciex API 3000 triple quadrupole mass spectrometer were used for the LC-MS/MS analysis. Some compounds as per the present invention are represented in the table below, were tested and their PK values are reported in Table 2.

The target of another data set is T1, PI3K alpha (Homo sapiens, UniProt P42336).
T1 construct: purchased Millipore Upstate
Briefly: P110 Alpha TR-FRET Assay (PI3K alpha kinase assay, HTRF Transcreener ADP Assay). The data set is classed as biochemical. The note with it: PI3K (WT). An outline of the steps: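 HTRF Transcreener ADP read-out of ADP formed by PI3K (50 ng enzyme) in 50 mM HEPES pH 7.5, 5 mM MgCl2, 1 mM DTT, 30 μM Na3VO4. Compound preincubated with enzyme 20 min; reaction started with 10 μM ATP and 5 μM PIP2, run 20 min, then ADP-d2/anti-ADP cryptate detection for 1 h.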

The test system of the next data set is human tumor xenografts. Particulars: mouse, in vivo; cited from earlier work.

Read-outs that look alike come from different tables or passages of the source. Where only a bound is given, the exact number is not on record here.

The values that follow come from patent US9481670B2, “Triazine compounds” (Sphaera Pharma PTE. Ltd., priority 2011, dated 2016).

T1 sequence (P42336 whole entry): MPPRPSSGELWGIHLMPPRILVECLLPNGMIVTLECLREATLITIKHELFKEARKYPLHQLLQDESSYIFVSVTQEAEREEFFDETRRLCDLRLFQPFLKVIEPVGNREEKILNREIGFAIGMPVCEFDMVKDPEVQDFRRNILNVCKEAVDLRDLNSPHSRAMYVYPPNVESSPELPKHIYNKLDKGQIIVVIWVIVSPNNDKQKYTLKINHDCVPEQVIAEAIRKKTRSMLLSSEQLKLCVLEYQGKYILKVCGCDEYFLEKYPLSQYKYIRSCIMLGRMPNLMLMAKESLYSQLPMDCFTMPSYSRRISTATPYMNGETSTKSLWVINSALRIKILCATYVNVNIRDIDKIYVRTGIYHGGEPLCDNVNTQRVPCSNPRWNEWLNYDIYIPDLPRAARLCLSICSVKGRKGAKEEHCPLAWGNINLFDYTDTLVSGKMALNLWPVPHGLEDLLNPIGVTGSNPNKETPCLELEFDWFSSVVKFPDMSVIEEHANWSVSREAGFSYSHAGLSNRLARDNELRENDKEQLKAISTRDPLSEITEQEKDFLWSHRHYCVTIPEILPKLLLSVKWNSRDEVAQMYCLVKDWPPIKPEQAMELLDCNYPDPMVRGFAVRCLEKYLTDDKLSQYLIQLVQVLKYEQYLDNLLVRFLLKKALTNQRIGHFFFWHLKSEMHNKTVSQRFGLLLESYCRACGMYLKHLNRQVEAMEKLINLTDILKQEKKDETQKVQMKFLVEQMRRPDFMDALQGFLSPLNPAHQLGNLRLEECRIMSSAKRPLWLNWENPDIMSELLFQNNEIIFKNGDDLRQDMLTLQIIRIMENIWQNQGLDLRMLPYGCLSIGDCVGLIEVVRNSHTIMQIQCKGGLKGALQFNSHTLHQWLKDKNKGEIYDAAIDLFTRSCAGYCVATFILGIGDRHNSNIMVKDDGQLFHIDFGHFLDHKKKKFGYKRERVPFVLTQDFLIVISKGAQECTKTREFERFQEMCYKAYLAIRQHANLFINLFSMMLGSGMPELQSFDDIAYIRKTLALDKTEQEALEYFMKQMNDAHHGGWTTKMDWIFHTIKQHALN
T1 sequence (P27986 whole entry partner): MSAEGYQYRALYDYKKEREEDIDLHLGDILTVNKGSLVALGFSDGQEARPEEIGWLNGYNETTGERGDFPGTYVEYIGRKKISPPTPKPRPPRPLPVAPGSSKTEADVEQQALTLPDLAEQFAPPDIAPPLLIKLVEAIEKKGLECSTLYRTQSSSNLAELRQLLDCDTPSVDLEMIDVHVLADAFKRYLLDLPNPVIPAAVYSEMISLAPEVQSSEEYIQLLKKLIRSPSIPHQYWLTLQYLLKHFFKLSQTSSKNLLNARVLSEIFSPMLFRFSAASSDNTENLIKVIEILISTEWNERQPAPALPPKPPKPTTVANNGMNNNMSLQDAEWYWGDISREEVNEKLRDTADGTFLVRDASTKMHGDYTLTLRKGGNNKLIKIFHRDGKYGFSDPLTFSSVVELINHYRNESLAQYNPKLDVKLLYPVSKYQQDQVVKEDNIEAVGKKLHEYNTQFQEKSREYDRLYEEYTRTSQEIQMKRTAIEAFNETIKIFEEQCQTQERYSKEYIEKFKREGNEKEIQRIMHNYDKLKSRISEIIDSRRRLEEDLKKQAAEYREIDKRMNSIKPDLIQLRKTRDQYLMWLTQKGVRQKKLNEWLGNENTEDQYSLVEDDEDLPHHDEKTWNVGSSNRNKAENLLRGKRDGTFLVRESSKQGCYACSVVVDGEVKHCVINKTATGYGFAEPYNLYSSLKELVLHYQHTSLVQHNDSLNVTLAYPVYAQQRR

Take `CNC(=O)c1ccc(Oc2nc(-c3cccc4[nH]ncc34)nc(N3CCOCC3)n2)cc1` [Compound 1113, 4-14-{[4-1-(1H-indazol-4-yl)-6-5-(morpholin-4-yl)-1,3,5-triazin-2-yl]oxy}-N-methylbenzamide]: the concentration in data set [1] (mouse) peaked (Cmax) at 1240 nM. Besides, the AUC in data set [1] (mouse, read-out: AUC) came to 5.25 µM·h. Moreover, the half-life in data set [1] (mouse, read-out: Elimination t1/2 (converted)) was 4.86 h. Moreover, in data set [1] (mouse, read-out: Tmax), the Tmax was determined as 1 h.

As for `CN(C)C(=O)N1CCC(Oc2nc(-c3cccc4[nH]ncc34)nc(N3CCOCC3)n2)CC1` [Compound 1126, 4-14-{[4-1-(1H-indazol-4-yl)-6-5-(morpholin-4-yl)-1,3,5-triazin-2-yl]oxy}-N,N-dimethylpiperidine-1-carboxamide], in data set [1], the AUC came out at 1618 nM-hr, the peak level (Cmax) was 535 nM, the “Elimination t1/2” value is 3.15 h and the time to peak (Tmax) stood at 0.83 h. Besides, the IC50 against PI3K alpha is below 5 µM.

Turning to `CN(C)C(=O)[C@H]1CC[C@H](Oc2nc(-c3cccc4[nH]ncc34)nc(N3CCOCC3)n2)CC1` [Compound 1144, (1r,4r)-4-21-{[4-1-(1H-indazol-4-yl)-6-5-(morpholin-4-yl)-1,3,5-triazin-2-yl]oxy}-N,N-dimethylcyclohexane-1-carboxamide], in data set [1], the AUC worked out at 5849 nM-hr, the concentration peaked (Cmax) at 1660 nM, the “Elimination t1/2” value came to 4.34 h and the time to peak (Tmax) came to 1.33 h. The same molecule showed a 50% inhibitory concentration (IC50) at PI3K alpha below 5 µM.

In turn, `CC(C)(Nc1nc(-c2cccc3[nH]ncc23)nc(N2CCOCC2)n1)C(=O)O` [Compound 1235, 2-((4-(1H-indazol-4-yl)-6-morpholino-1,3,5-triazin-2-yl)amino)-2-methylpropanoic acid] yielded an IC50 against PI3K alpha below 5 µM.

Consider `O=C(O)CNc1nc(-c2cccc3[nH]ncc23)nc(N2CCOCC2)n1` [Compound 1236, 2-((4-(1H-indazol-4-yl)-6-morpholino-1,3,5-triazin-2-yl)amino)acetic acid], for which the half-inhibitory concentration (IC50) at PI3K alpha is below 5 µM.

For `O=c1cc(N2CCOCC2)oc2c(-c3ccccc3)cccc12` [LY294002], the tolerability result in the data set with human tumor xenografts is “well-tolerated”.

At PI3K alpha, “N-[(4E)-1-8-[4-1-(1-21-{4-24-[(4E)-4-37-(hydroxyimino)azepan-1-yl]-6-26-(morpholin-4-yl)-1,3,5-triazin-2-yl}-1H-indazol-4-yl)-6-5-(morpholin-4-yl)-1,3,5-triazin-2-yl]azepan-4-ylidene]hydroxylamine [Compound 1123]” displayed an IC50 below 5 µM.

Broadly, the Cmax is the peak of the concentration-time curve. What is called Tmax is the time from dosing to the highest level. Broadly, the IC50 is the point on the concentration scale where inhibition reaches its midpoint. Read a low IC50 as inhibition by little substance.
